This is an account of results in article PMC5712521, “Dendrogenin A drives LXR to trigger lethal autophagy in cancers” (Nature Communications, 2017).

The term IC50 denotes the concentration that gives 50% inhibition.

The test system of one assay is B16F10 cells. The assay is described as follows: Clonogenicity (colony formation) inhibition. Format: cell-based. Conditions: Mus musculus, B16-F10; B16F10 (M); 72 h; read-out: Clono IC50. From the text:
(§1) Supplementary Fig. 1. a DDA inhibited m elanom a colony form ation. Melanom a cells were […]
(§2) a 0.5% solution of crystal violet in water and analyzed by microscopy. Images are representative of 5 independent experiments. b Evaluation of DDA-induced cytotoxicity (cytotox) and clonogenicity (clono) inhibition in a subset of human (H) and mouse (M) m elanom a cell lines. T he BRaf status in m elanom a cells lines is shown. […]

In a further assay the test system is SKMEL-28 cells. In words: Clonogenicity (colony formation) inhibition. Conditions: Homo sapiens, SK-MEL-28; SKMEL-28 (H); 72 h; read-out: Clono IC50. Format: cell-based.
Description: as §1, §2

The next assay relates to A375 cells. In words: Clonogenicity inhibition. Format: cell-based. Conditions: Homo sapiens, A-375; A375 (H); 72 h; read-out: Clono IC50.
Description: as §1, §2

The subject of the next assay is WM-266-4 cells. In words: Clonogenicity inhibition. The conditions noted are these: Homo sapiens; WM-266-4 (H); 72 h; read-out: Clono IC50. Format: cell-based.
Description: as §1, §2

The next assay deals with SKMEL-2 cells. The assay is described as follows: Clonogenicity inhibition. Format: cell-based. The conditions noted are these: Homo sapiens, SK-MEL-2; SKMEL-2 (H); 72 h; read-out: Clono IC50.
Description: as §1, §2

The subject of another assay is WM115 cells. In words: Clonogenicity inhibition. The class given is cell-based. The conditions noted are these: Homo sapiens, WM-115; WM115 (H); 72 h; read-out: Clono IC50.
Description: as §1, §2

The test system of another assay is WM35 cells. In words: Clonogenicity inhibition. The class given is cell-based. The conditions noted are these: Homo sapiens; WM35 (H); 72 h; read-out: Clono IC50.
Description: as §1, §2

Assay [1] has as its system RXRγ, FXR, SXR, PPARα, PPARγ, RARα, AHR, VDR, GR, PR, AR, ERα, ERβ. The assay is described as follows: Gene reporter luciferase assays on other nuclear receptors. The conditions noted are these: 2.5 µM DDA, 8 h, with or without cognate agonist. Format: cell-based, human. From the text: HEK293T were used for luciferase assays. Cells were transfected using the PolyEthylenImine (PEI) method with human retinoid-X receptor (RXRγ) and human liver-X-receptors (LXRα or LXRβ) with LXRE-Luc; RXRγ and human farnesoid X receptor (FXR) with EcRE-Luc; RXRγ and human steroid and xenobiotic X receptor (SXR) with DR4-Luc; RXRγ and human peroxisome proliferator activated receptors (PPARα, or PPARγ) with PPRE-Luc; RXRγ and human retinoic acid receptor (RARα) with DR1-Luc; human AHR and human ARNT with a DRE-Luc; human vitamin D receptor (VDR) with VDRE-Luc. Cells were transfected with plasmids encoding human glucocorticoid receptor (GR), progesterone receptor (PR), or androgen receptor (AR) with MMTV-Luc; or estrogen receptors (ERα and ERβ) with an ERE-Luc. The day after transfection with the luciferase reporter gene construct, cells were seeded in 12-well plates (50,000 cells per well). […] Luciferase activity was measured using the luciferase assay reagent (Promega), according to the manufacturer’s instructions. Protein concentrations were measured using the Bradford method to normalize luciferase activities. For each condition, luciferase activity was calculated from the data of three independent wells. […]

Consider `CC(C)CCC[C@@H](C)[C@H]1CC[C@H]2[C@@H]3C[C@@H](NCCc4cnc[nH]4)[C@@]4(O)C[C@@H](O)CC[C@]4(C)[C@H]3CC[C@]12C` [DDA, Dendrogenin A], for which the IC50 in the assay with B16F10 cells stood at 1.2e-06 ± 3e-07 M; with SKMEL-28 cells, 1.4 ± 0.6 µM; in the assay with A375 cells, 1.5 ± 0.3 µM; in the assay on WM-266-4 cells it was 1.2 ± 0.4 µM; with SKMEL-2 cells it was 1.4 ± 0.4 µM; in the assay with WM115 cells, 1.5 ± 0.3 µM. In addition, the half-inhibitory concentration (IC50) with WM35 cells came out at 1.4 ± 0.2 µM. In assay [1], the “agonistic or antagonistic transcriptional activity on other NRs” value is “did not show any agonistic or antagonistic transcriptional activity”.
